Test results: ChEMBL document CHEMBL4418499, “Inhibitors of trim33 and methods of use” (2018)

Tests used:
[1] = target: T1, E3 ubiquitin-protein ligase TRIM33 (Homo sapiens, UniProt Q9UPN9); experiment: Inhibition of recombinant TRIM33 PHD bromodomain (unknown origin) using biotinylated H3 peptide (H3K9me3K18ac) by AlphaScreen assay
T1 sequence (Q9UPN9 whole entry): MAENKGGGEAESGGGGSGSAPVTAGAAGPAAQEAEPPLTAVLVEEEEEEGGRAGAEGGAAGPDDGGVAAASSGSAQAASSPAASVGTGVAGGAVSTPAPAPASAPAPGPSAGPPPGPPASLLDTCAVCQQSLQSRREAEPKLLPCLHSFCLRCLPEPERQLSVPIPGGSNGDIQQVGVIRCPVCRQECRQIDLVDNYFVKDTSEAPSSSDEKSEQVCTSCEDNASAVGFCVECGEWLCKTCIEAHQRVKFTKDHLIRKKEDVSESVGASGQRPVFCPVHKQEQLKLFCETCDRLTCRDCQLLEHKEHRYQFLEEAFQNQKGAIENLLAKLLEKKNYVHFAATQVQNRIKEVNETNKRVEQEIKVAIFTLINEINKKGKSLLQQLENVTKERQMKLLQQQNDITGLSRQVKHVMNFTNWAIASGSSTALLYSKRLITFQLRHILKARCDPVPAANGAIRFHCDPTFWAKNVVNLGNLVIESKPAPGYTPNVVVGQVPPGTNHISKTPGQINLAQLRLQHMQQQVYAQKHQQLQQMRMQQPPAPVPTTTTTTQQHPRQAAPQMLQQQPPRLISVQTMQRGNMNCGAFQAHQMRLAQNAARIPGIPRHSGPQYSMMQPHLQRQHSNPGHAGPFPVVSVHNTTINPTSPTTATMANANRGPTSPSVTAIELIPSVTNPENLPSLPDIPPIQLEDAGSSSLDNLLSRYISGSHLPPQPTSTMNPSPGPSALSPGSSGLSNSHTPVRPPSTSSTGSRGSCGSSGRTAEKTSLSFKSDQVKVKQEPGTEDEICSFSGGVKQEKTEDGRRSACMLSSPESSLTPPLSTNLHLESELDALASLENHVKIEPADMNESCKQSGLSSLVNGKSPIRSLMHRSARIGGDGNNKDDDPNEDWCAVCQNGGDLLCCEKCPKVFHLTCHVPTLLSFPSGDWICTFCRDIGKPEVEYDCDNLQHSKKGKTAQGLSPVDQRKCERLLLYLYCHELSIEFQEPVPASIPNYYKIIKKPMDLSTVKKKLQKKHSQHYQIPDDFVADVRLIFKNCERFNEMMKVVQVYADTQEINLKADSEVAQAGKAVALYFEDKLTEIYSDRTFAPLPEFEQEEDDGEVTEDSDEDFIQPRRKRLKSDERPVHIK

[2] = species on record: Homo sapiens; experiment: Selectivity index, ratio of IC50 for recombinant TRIM24 (unknown origin) to IC50 for recombinant TRIM33 PHD bromodomain (unknown origin)
[3] = target: T2, Transcription intermediary factor 1-alpha (Homo sapiens, UniProt O15164); experiment: Inhibition of recombinant TRIM24 (unknown origin) using biotinylated H3 peptide (H3K9me3K18ac) by AlphaScreen assay
T2 sequence (O15164 whole entry): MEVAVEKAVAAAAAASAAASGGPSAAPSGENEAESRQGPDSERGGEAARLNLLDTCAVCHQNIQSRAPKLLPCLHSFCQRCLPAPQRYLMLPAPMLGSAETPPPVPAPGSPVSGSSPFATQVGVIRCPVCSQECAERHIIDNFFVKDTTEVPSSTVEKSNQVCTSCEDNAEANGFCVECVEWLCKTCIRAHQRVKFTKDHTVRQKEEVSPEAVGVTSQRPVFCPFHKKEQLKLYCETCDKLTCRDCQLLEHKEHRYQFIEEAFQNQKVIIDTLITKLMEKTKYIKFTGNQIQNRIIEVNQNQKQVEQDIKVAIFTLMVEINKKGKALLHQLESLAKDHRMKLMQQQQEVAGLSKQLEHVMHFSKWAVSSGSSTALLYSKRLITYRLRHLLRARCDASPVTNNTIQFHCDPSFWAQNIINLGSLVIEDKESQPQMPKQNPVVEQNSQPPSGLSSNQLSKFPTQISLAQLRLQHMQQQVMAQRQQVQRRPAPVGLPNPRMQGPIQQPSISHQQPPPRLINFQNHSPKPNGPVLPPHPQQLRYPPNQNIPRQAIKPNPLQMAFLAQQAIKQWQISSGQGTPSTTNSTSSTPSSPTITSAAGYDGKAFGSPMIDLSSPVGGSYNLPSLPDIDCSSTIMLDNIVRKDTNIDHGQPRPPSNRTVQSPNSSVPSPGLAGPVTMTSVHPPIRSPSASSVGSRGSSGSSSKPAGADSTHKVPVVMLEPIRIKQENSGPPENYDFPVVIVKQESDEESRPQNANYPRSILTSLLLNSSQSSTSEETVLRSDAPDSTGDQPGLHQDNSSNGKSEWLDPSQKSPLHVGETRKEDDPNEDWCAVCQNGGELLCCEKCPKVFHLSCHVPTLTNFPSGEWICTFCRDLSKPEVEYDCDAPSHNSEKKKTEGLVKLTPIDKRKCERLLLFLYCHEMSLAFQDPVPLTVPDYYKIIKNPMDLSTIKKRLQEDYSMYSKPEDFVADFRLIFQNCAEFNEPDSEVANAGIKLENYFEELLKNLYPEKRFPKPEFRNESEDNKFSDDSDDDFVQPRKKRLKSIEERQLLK

Structure (SMILES)	IC50 [1] [µM]	Ratio IC50 [2]	IC50 [3] [µM]
Cc1nc(-c2nc3ccc(Br)cn3c2NC2CCCCC2)c[nH]1	3.6	3.62	13
N#Cc1ccc(CNc2c(-c3ccc4nccn4c3)nc3ccccn23)cc1	87.4	23.8	2080
c1cn2c(NCCN3CCOCC3)c(-c3ccc4nccn4c3)nc2cn1	259	8.45	2190
COC(=O)c1ccc2nc(-c3ccc4nccn4c3)c(NCCc3ccc(OC)c(OC)c3)n2c1	15.7	380	5980
COc1ccc(Nc2c(-c3ccc4nccn4c3)nc3cnccn23)cc1	38.3	2.3	88.3
COCCNc1c(-c2c[nH]c(C)n2)nc2ccccn12	17.2	8.16	141
Cc1[nH]cnc1-c1nc2cnccn2c1NCCN1CCOCC1	71	1.67	119
Cc1[nH]cnc1-c1nc2cnccn2c1NCc1ccc(C#N)cc1	121	0.82	98.4
CCCOc1ccn2c(C(C)=O)cc(-c3nc4ccccn4c3NCCOC)c2c1	47.5	9.36	445
N#Cc1ccc(CNc2c(-c3ccc4nccn4c3)nc3ccc(Br)cn23)cc1	48.1	6.16	296
Cc1nc(-c2nc3ccc(Br)cn3c2NCc2ccc(C#N)cc2)c[nH]1	11.3	7.21	81.7
COc1ccc(Nc2c(-c3nc[nH]c3C)nc3cnccn23)cc1	14.7	0.5	7.32
CCCOc1ccn2c(C(C)=O)cc(-c3nc4ccccn4c3NC3CCCCC3)c2c1	8.72	16.2	142
COC(=O)c1ccc2nc(-c3ccc4nccn4c3)c(Nc3ccc(OC)cc3)n2c1	22.2	16.9	375
CCCOc1ccn2c(C(C)=O)cc(-c3nc4ccc(C(=O)OC)cn4c3Nc3ccc(OC)cc3)c2c1	48.6	7.3	355
N#Cc1ccc(CNc2c(-c3ccc4nccn4c3)nc3cnccn23)cc1	46.1	17.7	818
COC(=O)c1ccc2nc(-c3nc[nH]c3C)c(NCc3ccc(C#N)cc3)n2c1	113	2.83	319
COC(=O)c1ccc2nc(-c3nc[nH]c3C)c(Nc3ccc(OC)cc3)n2c1	19.3	3.99	77.2
COc1ccc(Nc2c(-c3ccc4nccn4c3)nc3ccccn23)cc1	26	5.88	153
CCCOc1ccn2c(C(C)=O)cc(-c3nc4cnccn4c3NCCN3CCOCC3)c2c1	151	32.9	4980
COCCNc1c(-c2ccc3nccn3c2)nc2ccc(Br)cn12	156	4.53	706
COc1ccc(CCNc2c(-c3nc[nH]c3C)nc3ccccn23)cc1OC	1.36	23.2	31.7
COCCNc1c(-c2ccc3nccn3c2)nc2ccccn12	139	41.7	5800

Next, values leading:

IC50 [1] [µM]	Ratio IC50 [2]	IC50 [3] [µM]	Structure (SMILES)
9.6	16.6	159	CCCOc1ccn2c(C(C)=O)cc(-c3nc4ccccn4c3Nc3ccc(OC)cc3)c2c1
190	28.6	5450	COCCNc1c(-c2ccc3nccn3c2)nc2cnccn12
131	14.5	1890	Cc1nc(-c2nc3cnccn3c2NCCN2CCOCC2)c[nH]1
69.6	3.6	250	CCCOc1ccn2c(C(C)=O)cc(-c3nc4ccccn4c3NCCN3CCOCC3)c2c1
450	0.43	194	Cc1nc(-c2nc3ccc(Br)cn3c2NCCN2CCOCC2)c[nH]1
8.57	13	111	COC(=O)c1ccc2nc(-c3c[nH]c(C)n3)c(Nc3ccc(OC)cc3)n2c1
7.88	30.8	243	COCCNc1c(-c2c[nH]c(C)n2)nc2ccc(Br)cn12
71.4	40.3	2870	COC(=O)c1ccc2nc(-c3c[nH]c(C)n3)c(NCCN3CCOCC3)n2c1
23.7	35.3	835	CCCOc1ccn2c(C(C)=O)cc(-c3nc4cnccn4c3NCCc3ccc(OC)c(OC)c3)c2c1
70.3	3.19	224	COc1ccc(Nc2c(-c3ccc4nccn4c3)nc3ccc(Br)cn23)cc1
95.6	10.9	1040	CCCOc1ccn2c(C(C)=O)cc(-c3nc4ccc(C(=O)OC)cn4c3NCCN3CCOCC3)c2c1
207	0.26	54.8	Cc1nc(-c2nc3cnccn3c2NCc2ccc(C#N)cc2)c[nH]1
66	12.4	819	CCCOc1ccn2c(C(C)=O)cc(-c3nc4cnccn4c3NCc3ccc(C#N)cc3)c2c1
